Like-named read-outs stand apart in the source and are kept apart here.
Columns and labels:
C6 rat glioma cell line = assay: MTT assay, inhibition of C6 tumor cell proliferation; type: cell-based; settings: for IC50: free glycoside derivative, 48 h treatment, MTT, read-out: ID50 (µM) C6
Description: (§1) Human A549 cell line and C6 rat glioma cell line were maintained in Dulbecco's modified Eagle's medium (DMEM) complete medium (Sigma-Aldrich, St. Louis, MO), supplemented with fetal bovine serum (FBS, 10%; GLinus, Madrid, Spain), glutamine (2 mM), penicillin (50 IU/mL), and streptomycin ([…]), at 37 °C in a 5% CO2 humidified atmosphere. Exponentially growing cells were seeded on 96-well plates (Beckton Dickinson, Le Pont de Claix, France), in DMEM complete medium, at a density of 1.5 x 10^4 cells/well for C6 cell and 5 x 10^3 cells/well for A549 cells respectively. The cells were allowed to attach with 5% of CO2 at 37°C for overnight, and then, to serum starve the cells, the medium was replaced by 100 µL of fresh DMEM without FBS and maintained overnight. Stock solutions in EtOH of the glycoside derivatives of formula (I) of Example 2 (50 mM) or stock solutions in PBS of the micelles of Example 3 were finally dissolved in DMEM complete medium for the treatments. The cells were treated with serial dilutions of glycoside derivatives of formula (I) of Example 2 or micelles of Example 3 for 48 h. For the experiments with micelles of Example 3, some 96-well plates were placed over a MagnetoFACTOR-96 device (Chemicell) to produce a strong magnetic field to each well and increase the proximity of the nanoparticles to the cells. Also, iron oxide nanoparticles coated with azelaic acid were tested (Azelaic-NP, obtained as described in Chemistry - A European Journal, 2008, 14 (30), 9126-9130) Cell proliferation was evaluated with an MTT assay (Sigma-Aldrich), based on the conversion of the water-soluble MTT into an insoluble formazan. Briefly, after 48 h of compound treatment, the medium was replaced by 100 µL of fresh DMEM without phenol red containing MTT (5 mg/mL) solution, and cells were incubated for additional 3 h at 37 °C with 5% CO2. After this time, the medium was removed, the precipitated formazan was dissolved in 100 µL of DMSO, and the solution optical density was measured at 595 nm in Spectramax Plus equipment (Molecular Devices Corporation). Absorption values were referred to positive proliferation controls (cells cultured in DMEM complete medium) and negative proliferation controls cells cultured in DMEM without FBS). Inhibition was expressed as an ID50 value, the compound concentration that reduced maximal proliferation by 50%, and the results are shown in Table 3. Table 3. Biological activity of glycoside derivatives of formula (I) and micelles comprising said glycoside derivatives.

A549 cell line = assay: MTT assay, inhibition of A549 tumor cell proliferation; type: cell-based, Human; settings: 48 h treatment, read-out: ID50 (µM) A549
Description: as §1, with “Absorption values were referred to positive proliferation controls (cells cultured in DMEM complete medium) and negative proliferation controls cells cultured in DMEM without FBS). Inhibition was expressed as an ID50 value, the compound concentration that reduced maximal proliferation by 50%, and the results are shown in Table 3. Table 3. Biological activity of glycoside derivatives of formula (I) and micelles comprising said glycoside derivatives.” left out

[1] = Solubility / stability in water; type: physicochemical; settings: pure water, observed by eye
Description: For GC-22 and TFA-GC22, the glycosides alone are not soluble in pure water, while the micelles GC-22-NPs and TFA-GC22-NPs are stable in the aqueous phase. Precipitate of GC-22 and TFA-GC22 can be observed by eye straight away in a pure water solution and no re-dispersion is produced when the aqueous micellar solution is mixed with an organic solvent selected from the group consisting of dichloromethane, chloroform, hexane, heptane, toluene, in a volume proportion of 1:1.

[2] = Homo sapiens, A549, free glycoside derivative

| IC50 (C6 rat glioma cell line; Rattus norvegicus, Glioma cell) | IC50 (A549 cell line; [2]) | solubility in water [1] | SMILES | IC50 (C6 rat glioma cell line) | inhibition of proliferation of C6 tumor cells (C6 rat glioma cell line; result in words) | IC50 (A549 cell line; free glycoside derivative) |
| --- | --- | --- | --- | --- | --- | --- |
| 15.5 ± 0.3 µM | 10 µM | not soluble | CCCCCCCC/C=C\CCCCCCCCO[C@H]1O[C@H](CO)[C@@H](O)[C@H](O)[C@H]1NC(C)=O [GC22, Oleyl 2-acetamido-2-deoxy-α-D-glucopyranoside] | – | – | – |
| 14.2 ± 0.3 µM | 8.6 µM | not soluble | CCCCCCCC/C=C\CCCCCCCCO[C@H]1O[C@H](CO)[C@@H](O)[C@H](O)[C@H]1NC(=O)C(F)(F)F [TFAGC22, Oleyl2-deoxy-2-trifluoroacetamido-α-D-glucopyranoside] | – | – | – |

| SMILES | IC50 (C6 rat glioma cell line; Rattus norvegicus, Glioma cell) | IC50 (A549 cell line; [2]) | solubility in water [1] | IC50 (C6 rat glioma cell line) | inhibition of proliferation of C6 tumor cells (C6 rat glioma cell line; result in words) | IC50 (A549 cell line; free glycoside derivative) |
| --- | --- | --- | --- | --- | --- | --- |
| CCCCCCCC/C=C\CCCCCCCCO[C@H]1O[C@H](COS(=O)(=O)[O-])[C@@H](O)[C@H](O)[C@H]1NC(C)=O.[K+] [IG20, Oleyl 2-acetamido-2-deoxy-6-O-(oxosulfonyl)-α-D-glucopyranoside potassium salt] | – | – | soluble in water | > 100 µM | did not show inhibition | 97 µM |
